Experimental data as given in patent publication US20220152031A1, “PYRIDAZINONES AND METHODS OF USE THEREOF” (Goldfinch Bio, Inc., priority 2019, published 2022).

Each compound was assayed against T1, TRPC5 (Homo sapiens, UniProt Q9UL62) (assay: TRPC5 activity assay (FLIPR calcium fluorescence, HEK-TREx hTRPC5 cells)). Conditions: HEK-TREx hTRPC5 cells, FLIPR, 30 μM Riluzole stimulation; read-out: TRPC5.
T1 construct: expressed in transfected cells
T1 sequence (Q9UL62 1-973): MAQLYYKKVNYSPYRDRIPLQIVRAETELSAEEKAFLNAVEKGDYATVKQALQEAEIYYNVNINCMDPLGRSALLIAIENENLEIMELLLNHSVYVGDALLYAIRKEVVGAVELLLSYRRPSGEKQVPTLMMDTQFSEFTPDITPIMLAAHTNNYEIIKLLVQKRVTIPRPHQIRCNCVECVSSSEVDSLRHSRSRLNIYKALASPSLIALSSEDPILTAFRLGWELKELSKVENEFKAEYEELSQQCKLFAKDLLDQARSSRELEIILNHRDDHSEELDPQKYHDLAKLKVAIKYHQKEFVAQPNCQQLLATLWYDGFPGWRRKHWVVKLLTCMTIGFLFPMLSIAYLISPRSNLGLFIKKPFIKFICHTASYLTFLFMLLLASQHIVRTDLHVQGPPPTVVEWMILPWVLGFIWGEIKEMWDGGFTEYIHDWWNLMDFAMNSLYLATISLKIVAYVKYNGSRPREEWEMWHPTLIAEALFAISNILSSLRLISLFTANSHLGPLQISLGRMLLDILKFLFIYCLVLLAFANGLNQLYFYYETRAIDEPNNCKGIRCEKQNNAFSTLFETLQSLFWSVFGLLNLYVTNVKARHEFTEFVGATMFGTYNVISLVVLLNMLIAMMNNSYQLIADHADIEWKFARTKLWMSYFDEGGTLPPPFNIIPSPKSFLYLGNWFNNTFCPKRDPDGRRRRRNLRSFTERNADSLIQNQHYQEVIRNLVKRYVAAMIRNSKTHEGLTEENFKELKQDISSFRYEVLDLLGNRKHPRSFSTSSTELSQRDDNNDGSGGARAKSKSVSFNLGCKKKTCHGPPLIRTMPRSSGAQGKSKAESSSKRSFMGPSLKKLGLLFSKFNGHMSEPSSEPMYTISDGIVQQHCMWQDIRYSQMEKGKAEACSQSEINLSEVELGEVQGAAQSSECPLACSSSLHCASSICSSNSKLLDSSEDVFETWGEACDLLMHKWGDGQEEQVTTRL
Type: cell-based
Procedure: ICLN-1633 cells (HEK-TREx hTRPC5) expressing TRPC5 were generated as follows. Commercially available HekTrex-293 cells were seeded at 0.7×10^6 cells/well in a 1×6-well plate 24 hrs prior to transfection using 2 mL cell growth media containing no antibiotics (lx DMEM/high glucose (Hyclone #SH30022.02); 10% fetal bovine serum (Sigma) 2 mM sodium pyruvate, 10 mM HEPES). […] On day 2, 2 μg of plasmid DNA plus 6 μl of Xtreme-GENE HP reagent in Optimem (200 μl total volume) was prepared and incubated for 15 min at room temperature. This plasmid solution was then gently overlayed dropwise onto each well and the plate was gently swirled to mix complex with the media for approximately 30 seconds. Transfected cells were incubated at 37° C. in a 10% CO2 incubator for 24 hrs. The transfected cells were harvested and transferred into 2×150 mm dishes containing cell growth media with no antibiotics at 37° C.
The next day selection was initiated to generate a stable pool by adding cell growth media containing 150 μg/mL Hygromycin and 5 μg/mL Blasticidin and cells were allowed to grow. Media with the selection agent was changed every 1-2 days as needed to remove dead cells. After 7 days, the hygromycin concentration was reduced to 75 μg/mL and cells growth was allowed to continue.
Single clones were selected as follows. The stable pool was diluted to 10 cells/mL and seeded (100 μl/well) into 24×96 well plates (˜1 cell/well) and allowed to grow for 7 days in cell growth media. Fresh media (100 μl) was added and the cells allowed to grow for another 1-2 weeks and then stored frozen or used immediately.
10-point dose response curves were generated using the Echo-550 acoustic dispenser. Compound source plates were made by serially diluting compound stocks to create 10 mM, 1 mM, and 0.1 mM solutions in DMSO into Echo certified LDV plates. The Echo then serially spotted 100% DMSO stock solutions into source dose response plates to generate a 4-fold dilution scheme. 100% DMSO was added to the spotted dose response plates to bring the final volume to 5 μl. 300 nl of the dose response stock plate was then spotted into pre-incubation and stimulation assay plates. 50 μl of pre-incubation buffer and 100 μl of stimulation buffer was then added to the plates resulting in a final assay test concentration range of 30 μM to 0.0001 μM with a final DMSO concentration of 0.3%.
Human ICLN-1633 cells expressing were plated onto 384 well, black PDL-coated microplates and maintained in TRPC5 growth media the day prior to use for experiments. TRPC5 expression was induced by the application of 1 μg/mL tetracycline at the time of plating. […] Cells are incubated at room temperature, protected from light, for 60-90 minutes. After the incubation period, the dye is removed and replaced with 10 μl of EBSS. Cell, pre-incubation and stimulation plates are loaded onto the FLIPR-II and the assay is initiated. The FLIPR measures a 10 second baseline and then adds 10 μl of 2× compounds (or controls). Changes in fluorescence are monitored for an additional 5 minutes. After the 5 minute pre-incubation, 20 μl of 2× Riluzole (with 1× compound or controls) is added to the cell plate. The final Riluzole stimulation concentration in the assay is 30 μM. After the Riluzole addition, changes in fluorescence are monitored for an additional 5 minutes.
Compound modulation of TRPC5 calcium response was determined as follows. After the Englerin A, fluorescence was monitored for a 5-minute period. The maximum relative fluorescence response (minus the control response of 1 μM of an internal control compound known to maximally block TRPC5 calcium response, the “REF INHIB” in the formula below) was captured and exported from the FLIPR.
Compound effect is calculated as % inhibition using the following formula: […]
wherein “RFU” is the relative fluorescent units.

Compound	IC50
Cn1c2c(c(Oc3ccc(F)cc3C(F)(F)F)nc1=O)CCN(c1cn[nH]c(=O)c1Cl)C2 [Compound 138, 4-Chloro-5-[4-[4-fluoro-2-(trifluoromethyl)phenoxy]-1-methyl-2-oxo-1H,2H,5H,6H,7H,8H-pyrido[3,4-d]pyrimidin-7-yl]-2,3-dihydropyridazin-3-one]	50 to 500 nM
N#Cc1cccc(Oc2ncnc3c2CCN(c2cn[nH]c(=O)c2Cl)C3)c1C(F)(F)F [Compound 111, 3-[[7-(5-Chloro-6-oxo-1,6-dihydropyridazin-4-yl)-5H,6H,7H,8H-pyrido[3,4-d]pyrimidin-4-yl]oxy]-2-(trifluoromethyl)benzonitrile]	50 to 500 nM
C[C@@H]1CCN(Cc2ccccc2)C[C@@H]1N(C)c1ncnc2c1CCN(c1cn[nH]c(=O)c1Cl)C2 [Compound 133, 5-(4-[[(3R,4R)-1-Benzyl-4-methylpiperidin-3-yl](methyl)amino]-5H,6H,7H,8H-pyrido[3,4-d]pyrimidin-7-yl)-4-chloro-2,3-dihydropyridazin-3-one]	50 to 500 nM
CN(c1ccc(F)cc1C(F)(F)F)c1cc(=O)n(C)c2c1CCN(c1cn[nH]c(=O)c1Cl)C2 [Compound 127, 7-(5-Chloro-6-oxo-1,6-dihydropyridazin-4-yl)-4-[[4-fluoro-2-(trifluoromethyl)phenyl](methyl)amino]-1-methyl-1,2,5,6,7,8-hexahydro-1,7-naphthyridin-2-one]	50 to 500 nM
O=c1[nH]ncc(N2CCc3c(Oc4ccc(F)cc4C(F)(F)F)ccnc3C2)c1Cl [Compound 140, 4-chloro-5-[4-[4-fluoro-2-(trifluoromethyl)phenoxy]-5,6,7,8-tetrahydro-1,7-naphthyridin-7-yl]-2,3-dihydropyridazin-3-one]	50 to 500 nM
N#Cc1cccc(Oc2ncnc3c2CCN(c2cn[nH]c(=O)c2Cl)C3)c1Cl [Compound 108, 2-Chloro-3-[[7-(5-chloro-6-oxo-1,6-dihydropyridazin-4-yl)-5H,6H,7H,8H-pyrido[3,4-d]pyrimidin-4-yl]oxy]benzonitrile]	50 to 500 nM
COc1nc2c(c(Oc3ccc(F)cc3C(F)(F)F)n1)CCN(c1cn[nH]c(=O)c1Cl)C2 [Compound 139, 4-Chloro-5-[4-[4-fluoro-2-(trifluoromethyl)phenoxy]-2-methoxy-5H,6H,7H,8H-pyrido[3,4-d]pyrimidin-7-yl]-2,3-dihydropyridazin-3-one]	50 to 500 nM
C[C@@H]1c2ncnc(Oc3ccc(F)cc3Cl)c2CCN1c1cn[nH]c(=O)c1Cl [Compound 118, 4-chloro-5-[(8R)-4-(2-chloro-4-fluorophenoxy)-8-methyl-5H,6H,7H,8H-pyrido[3,4-d]pyrimidin-7-yl]-2,3-dihydropyridazin-3-one]	50 to 500 nM
C[C@H](O)c1nc2c(c(Oc3ccccc3C(F)(F)F)n1)CCN(c1cn[nH]c(=O)c1Cl)C2 (single isomer, unassigned) [Compound 123]	50 to 500 nM
O=c1[nH]ncc(N2CCc3c(ncnc3C3(c4ccc(F)cc4C(F)(F)F)CC3)C2)c1Cl [Compound 132, 4-Chloro-5-(4-[1-[4-fluoro-2-(trifluoromethyl)phenyl]cyclopropyl]-5H,6H,7H,8H-pyrido[3,4-d]pyrimidin-7-yl)-2,3-dihydropyridazin-3-one]	50 to 500 nM
COc1nc2c(c(Oc3ccccc3C(F)(F)F)n1)CCN(c1cn[nH]c(=O)c1Cl)C2 [Compound 110, 4-Chloro-5-[2-methoxy-4-[2-(trifluoromethyl)phenoxy]-5H,6H,7H,8H-pyrido[3,4-d]pyrimidin-7-yl]-2,3-dihydropyridazin-3-one]	50 to 500 nM
C[C@@H](O)c1nc2c(c(Oc3ccc(F)cc3Cl)n1)CCN(c1cn[nH]c(=O)c1Cl)C2 [Compound 119]	< 50 nM

Now from value to compound:

IC50	Compound
< 50 nM	O=c1[nH]ncc(N2CCc3c(ncnc3Oc3cnccc3C(F)(F)F)C2)c1Cl [Compound 107]
< 50 nM	O=c1[nH]ncc(N2CCc3c(ncnc3N(CCO)c3ccc(F)cc3C(F)(F)F)C2)c1Cl [Compound 136, 4-Chloro-5-(4-[[4-fluoro-2-(trifluoromethyl)phenyl](2-hydroxyethyl)amino]-5H,6H,7H,8H-pyrido[3,4-d]pyrimidin-7-yl)-2,3-dihydropyridazin-3-one]
< 50 nM	CN(c1cnccc1C(F)(F)F)c1ncnc2c1CCN(c1cn[nH]c(=O)c1Cl)C2 [Compound 131, 4-chloro-5-(4-[methyl[4-(trifluoromethyl)pyridin-3-yl]amino]-5H,6H,7H,8H-pyrido[3,4-d]pyrimidin-7-yl)-2,3-dihydropyridazin-3-one]
< 50 nM	Nc1nc2c(c(Oc3ccccc3C(F)(F)F)n1)CCN(c1cn[nH]c(=O)c1Cl)C2 [Compound 102]
< 50 nM	Nc1nc2c(c(Oc3ccc(F)cc3Cl)n1)CCN(c1cn[nH]c(=O)c1Cl)C2 [Compound 112, 5-[2-amino-4-(2-chloro-4-fluorophenoxy)-5H,6H,7H,8H-pyrido[3,4-d]pyrimidin-7-yl]-4-chloro-2,3-dihydropyridazin-3-one]
< 50 nM	O=c1[nH]ncc(N2CCc3c(nc(CO)nc3Oc3ccc(F)cc3Cl)C2)c1Cl [Compound 114]
< 50 nM	O=c1[nH]ncc(N2CCc3c(ncnc3Oc3ccc(F)cc3C(F)F)C2)c1Cl [Compound 105]
< 50 nM	O=c1[nH]ncc(N2CCc3c(nc(CO)nc3Oc3ccc(F)cc3C(F)F)C2)c1Cl [Compound 134, 4-chloro-5-[4-[2-(difluoromethyl)-4-fluorophenoxy]-2-(hydroxymethyl)-5H,6H,7H,8H-pyrido[3,4-d]pyrimidin-7-yl]-2,3-dihydropyridazin-3-one]
< 50 nM	O=c1[nH]ncc(N2CCc3c(nc(CO)nc3Oc3ccc(F)cc3C(F)(F)F)C2)c1Cl [Compound 125]
< 50 nM	O=c1[nH]ncc(N2CCc3c(ncnc3Oc3c(F)cccc3C(F)(F)F)C2)c1Cl [Compound 121]

Same assay, conditions: Table 4, HEK-TREx hTRPC5; read-out: TRPC5-FLIPR IC50

IC50	Compound
0.01 to 1000 nM	CCc1ncccc1[C@@H](C)n1nnc2c1CCN(c1cn[nH]c(=O)c1Cl)C2 [MS, 4-chloro-5-[1-[(1R)-1-(2-ethylpyridin-3-yl)ethyl]-1H,4H,5H,6H,7H-[1,2,3]triazolo[4,5-c]pyridin-5-yl]-2,3-dihydropyridazin-3-one]

Same assay, conditions: Table 7, HEK-TREx hTRPC5; read-out: TRPC5-FLIPR IC50

IC50	Compound
0.01 to 1000 nM	CCc1ncccc1[C@@H](C)n1nnc2c1CCN(c1cn[nH]c(=O)c1Cl)C2 [MS, 4-chloro-5-[1-[(1R)-1-(2-ethylpyridin-3-yl)ethyl]-1H,4H,5H,6H,7H-[1,2,3]triazolo[4,5-c]pyridin-5-yl]-2,3-dihydropyridazin-3-one]
